Data reported in patent US8288549B2, “Glycine B antagonist” (Merz Pharma GmbH & Co. KGaA, priority 2008, dated 2012).

Tests used:
[1] = molecular target: T1, glycine binding pocket of the NMDA receptor (Rattus norvegicus, UniProt P35439); test: [3H]-MDL-105,519 displacement studies on rat cortical membranes; settings: displacement of 2 nM [3H]-MDL-105,519, rat cortical membranes, 4° C., 1 h; read-out: NMDA-MDL 105519-r-CTX - IC50
T1 construct: The cortex is dissected out and processed as described by Parsons, et al; from tissue; host or cells: rat cerebral cortex membranes (male Sprague-Dawley)
Protocol: [^3]MDL-105,519 Displacement Studies
For the evaluation of the binding affinity of the test compounds on the glycine binding pocket of the NMDA receptor, [^3H]-MDL-105,519 (GE Healthcare, Freiburg, Germany) displacement studies are performed using a 96-well plate robotic platform. MDL-105,519 (Baron et al., J Pharmacol Exp Ther 1996, 279(1), 62-68; Baron et al., European Journal of Pharmacology, 1997, 323(2-3), 181-192; Hoffner & Wanner, Neuroscience Letters, 1997, 226(2), 79-82) is a selective, high affinity antagonist at the NMDA receptor glycine site.
Tissue preparation is performed according to Foster & Wong (Br J Pharmacol, 1987, 91, 403-409) with some modifications. Anaesthetised male Sprague-Dawley rats (200-250 g, Janvier, Le Genest-Isle, France) are decapitated and their brains removed rapidly. The cortex is dissected out and processed as described by Parsons, et al. (J Pharmacol Exp Ther, 1997, 283(3), 1264-1275). For isolation of the cell membranes, the cortices are homogenized in 20 volumes of ice-cold 0.32 M sucrose (Sigma-Aldrich, Taufkirchen, Germany) using a glass-Teflon homogenizer. The homogenate is centrifuged at 1000×g for 10 minutes, the pellet is discarded and the supernatant centrifuged at 20,000×g for 20 minutes. The resulting pellet is re-suspended in 20 volumes of distilled water and centrifuged for 20 minutes at 8000×g. The supernatant and the buffy coat are then centrifuged three times (48,000×g for 20 minutes) in the presence of 50 mM Tris-HCl, pH 8.0 (assay buffer). All centrifugation steps are carried out at 4° C. After resuspension in 5 volumes of 50 mM Tris-HCl, pH 7.5, the membrane suspension is frozen rapidly at −80° C. On the day of assay, the membranes are thawed and washed four times by resuspension in 50 mM Tris-HCl, pH 7.5, and centrifugation at 48,000×g for 20 minutes. The final pellet is suspended in assay buffer. The amount of protein in the final membrane preparation is determined according to the method of Lowry, et al. (J. Biological Chemistry, 1951, 193, 256-275) with some modifications (Hartree, Analytical Biochemistry, 1972, 48, 422-427). The final protein concentration used for our studies is 400 μg/ml.
A robotic system designed for binding assays (Tecan Deutschland GmbH, Crailsheim, Germany) is loaded with the membrane solution, solutions for bound control (buffer/DMSO 20%), unlabeled glycine (1 mM) for evaluation of non-specific binding, all compounds to be tested (at 20-fold concentrations), radioligand and respective 96-well plates.
Before performing displacement studies, saturation experiments are performed to determine the equilibrium dissociation constant (Kd) of [^3H]-MDL-105,519, which is a parameter for the affinity of the radioligand to the binding site. The protein/receptor concentration is held constant whereas the amount of specific bound radioligand is determined using increasing concentrations of ligand.
On the basis of the saturation experiments, a final [^3H]-MDL-105,519 concentration of 2 nM is selected. Firstly, the assay plates are loaded with membrane solution and are shaken at 4° C. The mother plates are then prepared by pipetting the compounds (n=4) into assay buffer/20% DMSO to obtain the desired final concentrations. After transferring radioligand into the assay plates, the compounds are added (including the bound and the non-specific binding control). The final DMSO concentration is 1%. The assay plates are incubated and shaken at 4° C. for 1 h, before the mixture is exhausted as rapidly as possible via a vacuum manifold using the Multiscreen HTS glass fibre (type B) filter plates (Millipore, Schwalbach, Germany) under a constant vacuum of 450 mbar. The membranes are washed four times with cold assay buffer (100 μL). […]

[2] = molecular target: T2, NMDA receptor glycine B site (Rattus norvegicus, UniProt P35439); test: Whole cell patch-clamp recordings in cultured rat hippocampal neurons (NMDA/D-Serine evoked currents); format: cell-based; settings: NMDA (200 μM) and D-Serine (1 μM), holding potential −70 mV, read-out: NMDA-PC-r-HIC-NAM - IC50
T2 construct: Hippocampi are then isolated from the brains of at least 8 embryos after decapitation; endogenous in cells; host or cells: primary cultured hippocampal neurons from E20 Sprague-Dawley rat embryos, 11-15 DIV
Protocol: Antagonistic potencies of the test compounds are functionally evaluated using electrophysiological whole cell patch-clamp recordings and/or fluorometric intracellular Ca^2+-imaging (FLIPR) screens.
Cell preparation is performed as described by Parsons, et al. (Neuropharmacology, 1998, 37(6), 719-727). The female Sprague-Dawley rat is anaesthetised by placing in a saturated CO2-euthanasia chamber under further quiet CO2-influx. Under these conditions the rat loses consciousness after a few seconds and is then sacrificed by cervical dislocation. After opening the abdominal cavity, embryos (E20) are removed and stored in ice cold Ca^2+- and Mg^2+-free Hank's Buffered Salt Solution (pH 7.3), containing 4 g/l glucose (HBSS-CMF). Hippocampi are then isolated from the brains of at least 8 embryos after decapitation, transferred into ice cold HBSS-CMF and washed 3 to 4 times.
Hippocampi are pre-incubated for 8 min with a 0.66% trypsin (Sigma-Aldrich) and 0.1% (20 U/ml) DNAase solution (Sigma-Aldrich) in Ca^2+-free Phosphate Buffered Saline (PBS-CF) and washed 3 times with HBSS-CMF. Cells are then mechanically dissociated by trituration in a PBS-CF solution containing 0.05% (10 U/ml) DNAase and 0.3% of the trypsin inhibitor ovomucoid (all from Sigma-Aldrich). The cells are then centrifuged at 180×g for 10 minutes, and the cell pellet re-suspended in basal Minimum essential medium (MEM, Invitrogen, Karlsruhe, Germany), again carefully triturated to ensure maximal dissociation and finally plated in the flexiPERM inserts (Thermo Fisher Scientific, Langenselbold, Germany) at a density of 15×10^3 cells/cm^2 (0.5 ml/insert) onto poly-DL-ornithine (Sigma) and mouse laminin (Invitrogen) pre-coated plastic petri dishes. After 1 hour the cells become attached to the bottom of the dish and the inserts may be removed. The cells are then nourished with 2 ml MEM supplemented with 5% foetal calf serum (FCS) and 5% horse serum and incubated at 37° C. with 95% air and 5% CO2 at 95% humidity. After 4 days in vitro (DIV) further glial mitosis is inhibited by adding 10 μl of AraC (5 μM endconcentration). The medium is completely exchanged after an additional 2 DIV and again, but only partly (50%), after 8 DIV. The cells are used for electrophysiological recordings after 11-15 DIV.
Cells are visualised using an inverted microscope and selected for patching based upon their position and morphology. Voltage clamp recordings are made in the whole cell configuration of the patch clamp technique at a holding potential of −70 mV with the aid of an EPC-10 amplifier in combination with pipette manipulator. Patch clamp pipettes are pulled from borosilicate glass using a horizontal puller (P-97 Puller, Sutter Instruments, USA) and, when filled with intracellular solution, have resistances of 1-4 MΩ.
Solutions are delivered via a home-made gravity driven very fast perfusion system (<10 ms) including valves to switch flow on and off in combination with a stepper motor-driven double-barreled theta glass application pipette in order to expose cells to either agonist-free or agonist-containing solutions in presence or absence of antagonist.
The intracellular solution used consists of: 120 mM CsCl, 10 mM EGTA, 1 mM MgCl2, 200 μM CaCl2, 10 mM glucose and 22 mM tetraethyl ammonium chloride (TEA-CL). The corresponding extracellular bath solution contains: 140 mM NaCl, 3 mM KCl, 10 mM glucose, 10 mM HEPES, 1.5 mM CaCl2 and 4.5 mM sucrose (all from Sigma-Aldrich) pH 7.3, and is supplemented with 0.3 μM tetrodotoxin (TTX, Tocris, Bristol, U.K.) to block voltage-activated sodium channels and 0.25 μM bicuculline (Sigma-Aldrich) to block GABAA receptors. […]

Structure (SMILES)	IC50 [1]	melting point	IC50 [2]
O=C(O)c1cc2cc(Cl)ccc2nc1N[C@@H](Cc1ccc(Oc2nc3ccc(Cl)cc3cc2C(=O)O)cc1)C(=O)O [Example 8, 2-{(S)-1-Carboxy-2-[4-(3-carboxy-6-chloroquinolin-2-yloxy)-phenyl]-ethylamino}-6-chloro-quinoline-3-carboxylic acid]	450 nM		
O=C(O)c1cc2cc(Cl)ccc2nc1N[C@@H](Cc1ccc(OCc2ccccc2)cc1)C(=O)O [Example 22, 2-[(S)-2-(4-Benzyloxy-phenyl)-1-carboxy-ethylamino]-6-chloro-quinoline-3-carboxylic acid]	2700 nM		
CC(c1ccccc1)C(Nc1nc2ccc(Cl)cc2cc1C(=O)O)C(=O)O (stereo not drawn) [Example 31, erythro-2-(1-Carboxy-2-phenyl-propylamino)-6-chloro-quinoline-3-carboxylic acid]	3370 nM		
O=C(O)c1cc2cc(Cl)c(Cl)cc2nc1N[C@@H](Cc1ccccc1)C(=O)O [Example 32, 2-((S)-1-Carboxy-2-phenyl-ethylamino)-6,7-dichloro-quinoline-3-carboxylic acid]	5800 nM		
O=C(O)c1cc2cc(Cl)ccc2nc1N[C@@H](CC1CCCCC1)C(=O)O [Example 35, 2-((S)-1-Carboxy-2-cyclohexyl-ethylamino)-6-chloro-quinoline-3-carboxylic acid]	3300 nM		
N.N.O=C(O)c1cc2cc(Cl)ccc2nc1NC(Cc1ccccc1F)C(=O)O (stereo not shown) [Example 40, 2-[1-Carboxy-2-(2-fluoro-phenyl)-ethylamino]-6-chloro-quinoline-3-carboxylic acid ammonium salt]		144 to 148 °C (dec.)	754 nM
O=C(O)c1cc2cc(Br)ccc2nc1N[C@H](Cc1ccccc1)C(=O)O [Example 47, 6-Bromo-2-((R)-1-carboxy-2-phenyl-ethylamino)-quinoline-3-carboxylic acid]		140 to 141 °C	468 nM
Nc1cc(C[C@H](Nc2nc3ccc(Cl)cc3cc2C(=O)O)C(=O)O)ccc1Oc1nc2ccc(Cl)cc2cc1C(=O)O [Example 48, 2-{(S)-2-[3-Amino-4-(3-carboxy-6-chloro-quinolin-2-yloxy)-phenyl]-1-carboxy-ethylamino}-6-chloro-quinoline-3-carboxylic acid]		> 250 °C	680 nM
O=C(O)c1cc2cc(Cl)ccc2nc1Nc1ccc(CC(Nc2nc3ccc(Cl)cc3cc2C(=O)O)C(=O)O)cc1 (stereo not shown) [Example 59, 2-{1-Carboxy-2-[4-(3-carboxy-6-chloro-quinolin-2-ylamino)-phenyl]-ethylamino}-6-chloro-quinoline-3-carboxylic acid]		> 250 °C (dec.)	640 nM
O=C(O)c1cc2cc(Cl)ccc2nc1NC(C(=O)O)C(C(=O)O)c1ccccc1 (stereo not shown) [Example 79, 2-(3-Carboxy-6-chloro-quinolin-2-ylamino)-3-phenyl-succinic acid]		165 to 170 °C (dec.)	250 nM
O=C(O)c1cc2cc(Cl)ccc2nc1N[C@@H](Cc1ccc(Oc2ccc(Br)cn2)cc1)C(=O)O [Example 101, 2-{(S)-2-[4-(5-Bromo-pyridin-2-yloxy)-phenyl]-1-carboxy-ethylamino}-6-chloro-quinoline-3-carboxylic acid]		145 to 150 °C	420 nM
O=C(O)c1cc2cc(Cl)ccc2nc1N[C@@H](Cc1ccc(Oc2ccc(I)cn2)cc1)C(=O)O [Example 131, 2-{1-Carboxy-2-[4-(5-iodo-pyridin-2-yloxy)-phenyl]-ethylamino}-6-chloro-quinoline-3-carboxylic acid]			170 nM
O=C(O)c1cc2cc(Cl)ccc2nc1N[C@@H](Cc1ccc(Oc2ccnc3cc(Cl)ccc23)cc1)C(=O)O [Example 142, 2-{(S)-1-Carboxy-2-[4-(7-chloro-quinolin-4-yloxy)-phenyl]-ethylamino}-6-chloro-quinoline-3-carboxylic acid]	1440 nM		
O=C(O)c1cc2cc(Cl)ccc2nc1N[C@@H](Cc1ccc(Oc2ccncc2Br)cc1)C(=O)O [Example 144, 2-{(S)-2-[4-(3-Bromo-pyridin-4-yloxy)-phenyl]-1-carboxy-ethylamino}-6-chloro-quinoline-3-carboxylic acid]	840 nM		
O=C(O)c1cc2cc(Cl)ccc2nc1N[C@@H](Cc1ccc(Oc2ccc3cc(Br)cnc3n2)cc1)C(=O)O [Example 147, 2-{(S)-2-[4-(6-Bromo-[1,8]naphthyridin-2-yloxy)-phenyl]-1-carboxy-ethylamino}-6-chloro-quinoline-3-carboxylic acid]	290 nM		
O=C(O)c1cc2cc(Cl)ccc2nc1NC(Cc1ccccn1)C(=O)O (stereo not shown) [Example 149, 2-(1-Carboxy-2-pyridin-2-yl-ethylamino)-6-chloro-quinoline-3-carboxylic acid]			170 nM
